# Results: patent US7582601B2, “Use of tryptophan rich peptides” (Campina B.V., priority 2003, dated 2009)
# System: cholecystokinin (CCK) level in plasma
# Experiment: Plasma CCK levels in human volunteers after ingestion of test substance in orange juice (RIA)
# Type: in vivo
# Conditions: healthy fasted human volunteers, n = 8
# Experimental: The experiment described below was performed in a double-blind, four period, randomised, cross-over, placebo controlled study.
# Eight healthy human volunteers were divided into four groups of two, and were refrained from any food overnight.
# The experiment was repeated four times such, that all the eight volunteers eventually obtained aal the four test substances. During the four hours following the ingestion of the orange juice, blood was taken from the test persons at t=0, 30, 60 90, 120, 180 and 240 minutes after ingestion. CCK analysis was carried out using a radio-immunoassay (RIA) kit of Euro-Diagnostica (cat nr. #RB302) according to the instructions of the manufacturer.
smiles,measurement,setting,value
"N[C@@H](Cc1c[nH]c2ccccc12)C(=O)O [Tryptophan, tryptophan]",Mean CCK levels in plasma,"0 minutes after ingestion, oral in 200 ml orange juice (25 g glucose), mean ± spread",0.64 ± 0.78 pmol/L
same,Mean CCK levels in plasma,"30 minutes after ingestion, oral in orange juice",1.49 ± 1.04 pmol/L
same,Mean CCK levels in plasma,"60 minutes after ingestion, oral in orange juice",1.05 ± 1.06 pmol/L
same,Mean CCK levels in plasma,"90 minutes after ingestion, oral in orange juice",0.83 ± 0.84 pmol/L
same,Mean CCK levels in plasma,"120 minutes after ingestion, oral in orange juice",0.34 ± 0.11 pmol/L
same,Mean CCK levels in plasma,"180 minutes after ingestion, oral in orange juice",0.30 ± 0.00 pmol/L
same,Mean CCK levels in plasma,"240 minutes after ingestion, oral in orange juice",0.30 ± 0.00 pmol/L
